Test system: patients with uterine fibroids and adenomyosis or endometriosis
Experiment: Clinical study: 5 mg or 10 mg ulipristal on pain in patients with adenomyosis or endometriosis (Example 2)
Format: in vivo, human
Set-up: key to PBAC score at the end of treatment (week 13): PBAC score; normal <75, >100 menorrhagia; higher is worse; key to A(SF-MPQ) Score: SF-MPQ Part A pain score; lower score is better; key to B(VAS) Score / B(VAS) CFB: SF-MPQ Part B VAS pain score; lower score is better
Procedure: Different parameters were assessed before treatment (Baseline) and after the end of treatment (13 weeks): • The PBAC score (Pictorial Blood Loss Assessment Chart) gives an estimation of the menstrual blood loss. This score was measured before treatment and continuing up to week 13 of treatment. Normal menstrual bleeding score is <75. Abnormal bleeding (menorrhagia) is characterized by a PBAC score >100. Higher the score, worse is the bleeding. • The Uterine volume was estimated before treatment (Baseline Uterine volume) and the % change in uterine volume was reported at the end of the treatment (week 13). • The SF-M P QPart A (short form of the Mc Gill Pain questionnaire) was used as a measure of the sensory, affective and intensity dimensions of pain. The pain was estimated before treatment and the change was reported at the end of the treatment (week 13). (NOTE: The lowest is the score, the better it is). • The SF-MPQ Part B (short form of the Mc Gill Pain questionnaire) wherein the pain is assessed with a visual analogue scale (VAS) before treatment and the change was reported at the end of the treatment (week 13). (NOTE: The lowest is the score, the better it is). • Discomfort questionnaire (disease specific quality of life questionnaire) estimating the quality of life before treatment and the change was reported at the end of the treatment (week 13). (NOTE: The lowest is the score, the better it is). • The level of Hb (Hemoglobin) was measured before treatment and at the end of the treatment. (NOTE: the higher it is, the better it is.) 3. Results
A double-blinded, randomized, study evaluating the effect of long term oral administration of 5 mg or 10 mg ulipristal in patients with heavy menstrual bleeding and pain.
The control group consisted of patients treated with GnRH agonist.
These patients included women 36 years of age or older with evidence of uterine fibroids and adenomyosis or endometriosis diagnosed by ultrasound.
Patient 210/5252 (candidate having adenomyosis) received a daily dose of 5 mg ulipristal (Esmya®) for 13 weeks and was followed up to week 38. A myomectomy by laparotomy was conducted after Week 13 visit.
Patient 281/5214 (candidate having endometriosis) received a daily dose of 5 mg ulipristal (Esmya®) for 13 weeks and was followed up to week 38.
Patient 210/5095 (candidate having adenomyosis) received a daily dose of 10 mg ulipristal (Esmya®) for 13 weeks and was followed up to week 38. A hysterectomy by laparoscopy was conducted after Week 13 visit.
Patient 210/5308 (candidate having endometriosis) received a daily dose of 10 mg ulipristal (Esmya®) for 13 weeks and was followed up to week 38. A myomectomy by hysteroscopy was conducted after Week 13 visit.
A myomectomy by laparoscopy and hysteroscopy was conducted between Week 26 & 38 visits.
Patient 250/5090 (candidate having endometrioma) received a daily dose of 10 mg ulipristal (Esmya®) for 13 weeks and was followed up to week 38.

[1] = 5 mg/day 13 weeks, patient 210/5252, adenomyosis, Week 5
[2] = 5 mg/day 13 weeks, patient 210/5252, adenomyosis, Week 13
[3] = 5 mg/day 13 weeks, patient 210/5252, adenomyosis, Week 26 follow-up, myomectomy by laparotomy after Week 13
[4] = 5 mg/day 13 weeks, patient 210/5252, adenomyosis, Week 38 follow-up, myomectomy by laparotomy after Week 13
[5] = 5 mg/day 13 weeks, patient 210/5252, adenomyosis, week 9
[6] = 5 mg/day 13 weeks, patient 281/5214, endometriosis, Week 5
[7] = 5 mg/day 13 weeks, patient 281/5214, endometriosis, Week 13
[8] = 5 mg/day 13 weeks, patient 281/5214, endometriosis, Week 17 follow-up, no surgery
[9] = 5 mg/day 13 weeks, patient 281/5214, endometriosis, Week 26 follow-up, no surgery
[10] = 5 mg/day 13 weeks, patient 281/5214, endometriosis, Week 38 follow-up, no surgery
[11] = 5 mg/day 13 weeks, patient 281/5214, endometriosis, week 9
[12] = 10 mg/day 13 weeks, patient 210/5095, adenomyosis, Week 5
[13] = 10 mg/day 13 weeks, patient 210/5095, adenomyosis, Week 13
[14] = 10 mg/day 13 weeks, patient 210/5095, adenomyosis, Week 17 follow-up, hysterectomy by laparoscopy after Week 13
[15] = 10 mg/day 13 weeks, patient 210/5095, adenomyosis, Week 26 follow-up, hysterectomy by laparoscopy after Week 13
[16] = 10 mg/day 13 weeks, patient 210/5095, adenomyosis, Week 38 follow-up, hysterectomy by laparoscopy after Week 13
[17] = 10 mg/day 13 weeks, patient 210/5095, adenomyosis, week 9
[18] = patient 210/5095, 10 mg, adenomyosis and uterine fibroids

Compound: CC(=O)O[C@]1(C(C)=O)CC[C@H]2[C@@H]3CCC4=CC(=O)CCC4=C3[C@@H](c3ccc(N(C)C)cc3)C[C@@]21C [Ulipristal, 17α-acetoxy-11β-[4-N,N-dimethylamino-phenyl)-19-norpregna-4,9-diene-3,20-dione]
- A(SF-MPQ) CFB [1]: −2
- A(SF-MPQ) Score [1]: 14
- B(VAS) CFB [1]: 21
- B(VAS) Score [1]: 64
- PBAC CFB [1]: 150
- PBAC Score [1]: 375
- % Change in Uterine Volume [2]: 6.6%
- A(SF-MPQ) CFB [2]: −3
- A(SF-MPQ) Score [2]: 9
- B(VAS) CFB [2]: −6
- B(VAS) Score [2]: 37
- PBAC CFB [2]: −101
- PBAC Score [2]: 124
- Uterine Volume [2]: 251.7 cm3
- A(SF-MPQ) CFB [3]: −4
- A(SF-MPQ) Score [3]: 8
- B(VAS) CFB [3]: 24
- B(VAS) Score [3]: 67
- PBAC CFB [3]: 530
- PBAC Score [3]: 755
- A(SF-MPQ) CFB [4]: −3
- A(SF-MPQ) Score [4]: 9
- B(VAS) CFB [4]: 27
- B(VAS) Score [4]: 70
- PBAC CFB [4]: 46
- PBAC Score [4]: 271
- A(SF-MPQ) CFB [5]: −1
- A(SF-MPQ) Score [5]: 11
- B(VAS) CFB [5]: 14
- B(VAS) Score [5]: 57
- PBAC CFB [5]: 58
- PBAC Score [5]: 283
- A(SF-MPQ) CFB [6]: −3
- A(SF-MPQ) Score [6]: 1
- B(VAS) CFB [6]: −17
- B(VAS) Score [6]: 3
- PBAC CFB [6]: −174
- PBAC Score [6]: 46
- % Change in Uterine Volume [7]: 21.3%
- A(SF-MPQ) CFB [7]: −4
- A(SF-MPQ) Score [7]: 0
- B(VAS) CFB [7]: −20
- B(VAS) Score [7]: 0
- PBAC CFB [7]: −220
- PBAC Score [7]: 0
- Uterine Volume [7]: 159.1 cm3
- % Change in Uterine Volume [8]: 12.6%
- Uterine Volume [8]: 147.7 cm3
- % Change in Uterine Volume [9]: −21.2%
- B(VAS) CFB [9]: 53
- B(VAS) Score [9]: 73
- PBAC CFB [9]: −168
- PBAC Score [9]: 52
- Uterine Volume [9]: 102.2 cm3
- % Change in Uterine Volume [10]: −24.6%
- A(SF-MPQ) CFB [10]: −4
- A(SF-MPQ) Score [10]: 0
- B(VAS) CFB [10]: −20
- B(VAS) Score [10]: 0
- PBAC CFB [10]: 351
- PBAC Score [10]: 571
- Uterine Volume [10]: 98.9 cm3
- A(SF-MPQ) CFB [11]: −4
- A(SF-MPQ) Score [11]: 0
- B(VAS) CFB [11]: −20
- B(VAS) Score [11]: 0
- PBAC CFB [11]: −220
- PBAC Score [11]: 0
- A(SF-MPQ) CFB [12]: 14
- A(SF-MPQ) Score [12]: 0
- B(VAS) CFB [12]: −88
- B(VAS) Score [12]: 0
- PBAC CFB [12]: −532
- PBAC Score [12]: 328
- % Change in Uterine Volume [13]: −33.8%
- A(SF-MPQ) CFB [13]: −14
- A(SF-MPQ) Score [13]: 0
- B(VAS) CFB [13]: −88
- B(VAS) Score [13]: 0
- PBAC CFB [13]: −860
- PBAC Score [13]: 0
- Uterine Volume [13]: 284.7 cm3
- A(SF-MPQ) CFB [14]: −14
- A(SF-MPQ) Score [14]: 0
- A(SF-MPQ) CFB [15]: −14
- A(SF-MPQ) Score [15]: 0
- B(VAS) CFB [15]: −88
- B(VAS) Score [15]: 0
- PBAC Score [15]: 0
- A(SF-MPQ) CFB [16]: −14
- A(SF-MPQ) Score [16]: 0
- B(VAS) CFB [16]: −88
- B(VAS) Score [16]: 0
- A(SF-MPQ) CFB [17]: 14
- A(SF-MPQ) Score [17]: 0
- B(VAS) CFB [17]: −88
- B(VAS) Score [17]: 0
- PBAC CFB [17]: −860
- PBAC Score [17]: 0
- uterine volume at week 13 compared to baseline (3 of 4 patients (210/5095, 210/5308, 250/5090), 10 mg): decrease in uterine volume
- bleeding starting from week 9 [18]: did not bleed anymore
- pain starting from 5th week [18]: no pain anymore
- PBAC value at week 13 (patient 210/5308, 10 mg/day 13 weeks, endometriosis): 55
- pain at week 5, 9, 13 compared to baseline (patients 281/5214, 210/5095, 210/5308, 250/5090, 5 mg or 10 mg): improvement in pain
- PBAC score at the end of treatment (week 13) (patients 281/5214, 210/5095, 250/5090, 5 mg or 10 mg): 0

Reference: patent US10441593B2, “Treatment of pain associated with dislocation of endometrium” (PREGLEM S.A., priority 2010, dated 2019)
